Columns and labels:
[1] = tested on: Arabidopsis transformed with TraP12 v2::dgt-14 (pDAB105528); assay: Postemergence glyphosate tolerance, visual injury; assay type: in vivo, Arabidopsis thaliana; details: 2 weeks after application
[2] = tested on: dgt-14 rice plants; assay: Glyphosate tolerance of dgt-14 rice; assay type: in vivo, Oryza sativa; details: sprayed
Excerpt: Putatively transgenic rice plantlets at the 3-5 leaf stage are sprayed with a solution of glyphosate. Once sprayed, plantlets are allowed to dry for one hour before being moved out of the fume hood. Rating for sensitivity or resistance to glyphosate is completed from 10-14 days after treatment (DAT). Glyphosate resistant rice plantlets which contain a fully integrated copy of the dgt-14 plant are identified. Rice plants containing the dgt-14 transgene are obtained. The dgt-14 rice plants are sprayed with varying concentrations of glyphosate and shown to provide tolerance to glyphosate at concentrations up to 3360 g ae/ha.

[3] = tested on: dgt-14 soybean plants; assay: Glyphosate tolerance of dgt-14 soybean; assay type: in vivo, Glycine max; details: sprayed
Method: Terminal leaflets of selected plantlets are treated topically (leaf paint technique) with a herbicide to screen for putative transformants. The screened plantlets are transferred to the greenhouse, allowed to acclimate and then leaf-painted with a herbicide to reconfirm tolerance. These putative transformed T0 plants are sampled and molecular analyses is used to confirm the presence of the selectable marker and the dgt-14 transgene. Several events are identified as containing the transgenes. These T0 plants are advanced for further analysis and allowed to self fertilize in the greenhouse to give rise to T1 seed. Soybean plants containing the dgt-14 transgene are obtained. The dgt-14 soybean plants are sprayed with varying concentrations of glyphosate and shown to provide tolerance to glyphosate at concentrations up to 3360 g ae/ha.

[4] = tested on: Arabidopsis transformed with TraP13 v2::dgt-14 (pDAB105529); assay: Postemergence glyphosate tolerance, visual injury; assay type: in vivo, Arabidopsis thaliana; details: for Visual % injury (Ave): 2 weeks after application
Excerpt: (§1) Transgenic T1 Arabidopsis plants containing the dgt-14 transgene were sprayed with differing rates of glyphosate. A distribution of varying concentrations of glyphosate rates, including elevated rates, were applied in this study to determine the relative levels of resistance (105, 420, 1,680 or 3,360 g ae/ha). The typical 1× field usage rate of glyphosate is 1,120 g ae/ha. The T1 Arabidopsis plants that were used in this study were variable in copy number for the dgt-14 transgene. The low copy dgt-14 T1 Arabidopsis plants were identified using the molecular confirmation assays described above, and self-pollinated and used to produce T2 plants.
(§2) The Arabidopsis T1 transformants were first selected from the background of untransformed seed using a glufosinate selection scheme. Three flats or 30,000 seed were analyzed for each T1 construct. The T1 plants selected above were molecularly characterized and the plants were subsequently transplanted to individual pots and sprayed with various rates of commercial glyphosate as previously described. The dose response of these plants is presented in terms of % visual injury 2 weeks after treatment (WAT). […] An arithmetic mean and standard deviation is presented for each construct used for Arabidopsis transformation. The range in individual response is also indicated in the last column for each rate and transformation. Wildtype, non-transformed Arabidopsis (c.v. Columbia) served as a glyphosate sensitive control.
(§3) Selected T1 Arabidopsis plants which were identified to contain low-copy numbers of transgene insertions (1-3 copies) were self-fertilized to produce a second generation for additional assessment of glyphosate tolerance. […] In the T2 generation hemizygous and homozygous plants were available for testing for each event and therefore were included for each rate of glyphosate tested. Hemizygous plants contain two different alleles at a locus as compared to homozygous plants which contain the same two alleles at a locus. The copy number and ploidy levels of the T2 plants were confirmed using the molecular analysis protocols previously described. Likewise, glyphosate was applied using the methods and rates as previously described. The dose response of the plants is presented in terms of % visual injury 2 weeks after treatment (WAT). […] An arithmetic mean and standard deviation are presented for each construct used for Arabidopsis transformation. The range in individual response is also indicated in the last column for each rate and transformation. Wildtype, non-transformed Arabidopsis (cv. Columbia) served as a glyphosate sensitive control. In addition, plants comprising a glyphosate herbicide resistance gene, dgt-1 (as described in U.S. patent Ser. No. 12/558,351, incorporated herein by reference in its entirety) were included as a positive control.
(§4) Randomly selected T2 Arabidopsis plants which were identified to contain low-copy numbers of transgene insertions (1-3 copies) were self-fertilized to produce a third generation for additional assessment of glyphosate tolerance. Arabidopsis seed from the third generation (T3) were planted and evaluated for glyphosate tolerance using the same protocols as previously described. […] These Events were assayed via LC-MS-MS to confirm that the plants expressed the DGT-14 protein. […] Exemplary resistant T3 Events comprised dgt-14 linked with TraP8 v2 (pDAB105526), TraP9 v2 (pDAB105527), TraP12 v2 (pDAB105528) and TraP13 v2 (pDAB105529).

[5] = tested on: Arabidopsis transformed with TraP8 v2::dgt-14 (pDAB105526); assay: Postemergence glyphosate tolerance, visual injury; assay type: in vivo, Arabidopsis thaliana; details: for Visual % injury (Ave): 2 weeks after application
Excerpt: as §1, §2, §3, §4

[6] = tested on: Arabidopsis with dgt-1 (pDAB3759), T2 segregating population; assay: Postemergence glyphosate tolerance, visual injury; assay type: in vivo, Arabidopsis thaliana; details: 2 weeks after application
Excerpt: as §1, §2, §3, §4

[7] = tested on: Arabidopsis transformed with TraP12 v2::dgt-14 (pDAB105528); assay: Postemergence glyphosate tolerance, visual injury; assay type: in vivo, Arabidopsis thaliana; details: for Visual % injury (Ave): 2 weeks after application
Excerpt: as §1, §2, §3, §4

[8] = T2, all concentrations of glyphosate tested
[9] = T3, all concentrations of glyphosate tested

O=C(O)CNCP(=O)(O)O [glyphosate, N-(phosphonomethyl)glycine]
Visual % injury (Ave) ([1]; T2, 840 g ae/ha): 2.5% | Visual % injury (Ave) ([1]; T3, 840 g ae/ha): 0.0% | tolerance to glyphosate at concentrations up to [2]: up to 3360 g ae/ha | tolerance to glyphosate at concentrations up to [3]: up to 3360 g ae/ha | Visual % injury (Ave) ([4]; T1, 105 g ae/ha): 34.5% | Visual % injury (Ave) ([4]; T1, 420 g ae/ha): 21.3% | Visual % injury (Ave) ([4]; T1, 1680 g ae/ha): 27.0% | Visual % injury (Ave) ([4]; T1, 3360 g ae/ha): 32.8% | Visual % injury (Ave) ([4]; T2, 420 g ae/ha): 0% | Visual % injury (Ave) ([4]; T2, 1680 g ae/ha): 1.8% | Visual % injury (Ave) ([4]; T2, 3360 g ae/ha): 3.8% | injury range [4, 8]: less than 20% | Visual % injury (Ave) ([4]; T3, 420 g ae/ha): 0.0% | Visual % injury (Ave) ([4]; T3, 1680 g ae/ha): 0.0% | Visual % injury (Ave) ([4]; T3, 3360 g ae/ha): 1.8% | injury range [4, 9]: less than 20% | Visual % injury (Ave) ([5]; T1, 105 g ae/ha): 40.0% | Visual % injury (Ave) ([5]; T1, 420 g ae/ha): 23.8% | Visual % injury (Ave) ([5]; T1, 1680 g ae/ha): 66.3% | Visual % injury (Ave) ([5]; T1, 3360 g ae/ha): 26.5% | Visual % injury (Ave) ([5]; T2, 420 g ae/ha): 0.5% | Visual % injury (Ave) ([5]; T2, 840 g ae/ha): 0.0% | Visual % injury (Ave) ([5]; T2, 1680 g ae/ha): 2.5% | Visual % injury (Ave) ([5]; T2, 3360 g ae/ha): 5.0% | injury range [5, 8]: less than 20% | Visual % injury (Ave) ([5]; T3, 420 g ae/ha): 0.0% | Visual % injury (Ave) ([5]; T3, 840 g ae/ha): 1.3% | Visual % injury (Ave) ([5]; T3, 1680 g ae/ha): 0.0% | Visual % injury (Ave) ([5]; T3, 3360 g ae/ha): 4.0% | injury range [5, 9]: less than 20% | Visual % injury (Ave) ([6]; T1 study, 105 g ae/ha): 40.0% | Visual % injury (Ave) ([6]; T1 study, 420 g ae/ha): 30.0% | Visual % injury (Ave) ([6]; T1 study, 1680 g ae/ha): 55.0% | Visual % injury (Ave) ([6]; T1 study, 3360 g ae/ha): 57.5% | Visual % injury (Ave) ([6]; T2 study, 420 g ae/ha): 40.0% | Visual % injury (Ave) ([6]; T2 study, 840 g ae/ha): 47.5% | Visual % injury (Ave) ([6]; T2 study, 1680 g ae/ha): 41.3% | Visual % injury (Ave) ([6]; T2 study, 3360 g ae/ha): 35.0% | Visual % injury (Ave) ([6]; T3 study, 420 g ae/ha): 42.5% | Visual % injury (Ave) ([6]; T3 study, 840 g ae/ha): 40.0% | Visual % injury (Ave) ([6]; T3 study, 1680 g ae/ha): 47.5% | Visual % injury (Ave) ([6]; T3 study, 3360 g ae/ha): 77.5% | Visual % injury (Ave) ([7]; T1, 105 g ae/ha): 6.0% | Visual % injury (Ave) ([7]; T1, 420 g ae/ha): 11.0% | Visual % injury (Ave) ([7]; T1, 1680 g ae/ha): 20.4% | Visual % injury (Ave) ([7]; T1, 3360 g ae/ha): 19.0% | Visual % injury (Ave) ([7]; T2, 420 g ae/ha): 1.8% | Visual % injury (Ave) ([7]; T2, 1680 g ae/ha): 2.0% | Visual % injury (Ave) ([7]; T2, 3360 g ae/ha): 3.8% | injury range [7, 8]: less than 20% | Visual % injury (Ave) ([7]; T3, 420 g ae/ha): 0.0% | Visual % injury (Ave) ([7]; T3, 1680 g ae/ha): 2.5% | Visual % injury (Ave) ([7]; T3, 3360 g ae/ha): 4.8% | injury range [7, 9]: less than 20%

Reference: US9873883B2, “Glyphosate resistant plants and associated methods” (Dow AgroSciences LLC, priority 2012, dated 2018)
